In US20250304623A1, “PEPTIDES FOR INTRACELLULAR DELIVERY” (UNIVERSIDADE DE SANTIAGO DE COMPOSTELA, priority 2022, published 2025):
*: point of attachment. NHNH2 = NN*

Key:
Type in all cases: cell-based
A549 cells = test: RLuc pDNA delivery, robotic library screening, A549
Procedure, shortened: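 A549 cells in DMEM+10% FBS were washed twice with PBS and exposed for 4 h to amphiphile/RLuc pDNA complexes prepared from DMSO stocks diluted in DMEM. After medium replacement and 72 hours, cells in HBSS were incubated at 37° C. for 30 minutes, basal then total luminescence measured after 5 μM coelenterazine h; background from untransfected cells was subtracted.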

Hek293 cells [1] = test: EGFP mRNA delivery, robotic library screening, Hek293
Procedure, shortened: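 Transfection used amphiphile at final 2.5, 5 or 10 μM with EGFP mRNA (25 ng/well) for 4 h without serum, then medium with 10% FBS. Plate-reader EGFP signal at 72 h, untreated background removed, mean of triplicates.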

Hek293 cells [2] = test: RLuc pDNA delivery, robotic library screening, Hek293
HepG2 cells [3] = test: EGFP mRNA delivery, robotic library screening, HepG2; details: HepG2 cells
Procedure, shortened: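 This robotic library screen tested delivery of CleanCap EGFP mRNA (5moU) into HepG2 cells using amphiphilic molecules. Complexes were freshly prepared at room temperature and added to the cells, and the medium was then replaced with fresh DMEM plus 10% FBS. Total EGFP fluorescence was measured in a plate reader at 72 h in triplicate, with untreated-cell background subtracted.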

HepG2 cells [4] = test: RLuc pDNA delivery, robotic library screening, HepG2
Procedure, shortened: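 After the 4 h exposure the complexes were replaced with fresh DMEM plus 10% FBS. At 72 hours cells were washed with HBSS, kept 30 minutes at 37° C. for basal readings, then given coelenterazine h (5 μM final) for 10 minutes before total luminescence was read. Triplicate means had untransfected background subtracted and were also expressed relative to Lipofectamine® 2000 set at 1.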

Substance: Ac-RK*LRRK*LRK*-NH2 (Ac-RK(NHNH2)LRRK(NHNH2)LRK(NHNH2)-NH2; not fully specified; printed as Ac-RK*LRRK*LRK*-NH2; also: K*2,K*6,K*9: native or modified lysine (ε-amide to a linker)) [Peptide 9.3]
- mean luminescent intensity (RLuc pDNA) (A549 cells; Dodecanal, 10 μM): 2898 RLU
- mean luminescent intensity (RLuc pDNA) (A549 cells; Myristoleyl, 5 μM): 23125 RLU
- mean luminescent intensity (RLuc pDNA) (A549 cells; Myristoleyl, 10 μM): 32698 RLU
- mean luminescent intensity (RLuc pDNA) (A549 cells; Myristoleyl, 15 μM): 6504 RLU
- mean luminescent intensity (RLuc pDNA) (A549 cells; Oleyl, 10 μM): 1117 RLU
- mean luminescent intensity (RLuc pDNA) (A549 cells; Oleyl, 15 μM): 1433 RLU
- mean luminescent intensity (RLuc pDNA) (A549 cells; Palmitoleyl, 10 μM): 5800 RLU
- mean luminescent intensity (RLuc pDNA) (A549 cells; Palmitoleyl, 15 μM): 9967 RLU
- mean luminescent intensity (RLuc pDNA) (A549 cells; Petroselinyl, 10 μM): 4167 RLU
- mean luminescent intensity (RLuc pDNA) (A549 cells; Petroselinyl, 15 μM): 5514 RLU
- mean fluorescence intensity (EGFP mRNA) (Hek293 cells [1]; Oleyl, 2.5 μM): 1416
- mean fluorescence intensity (EGFP mRNA) (Hek293 cells [1]; Oleyl, 5 μM): 2885
- mean fluorescence intensity (EGFP mRNA) (Hek293 cells [1]; Oleyl, 10 μM): 466
- mean fluorescence intensity (EGFP mRNA) (Hek293 cells [1]; Palmitoleyl, 5 μM): 1665
- mean fluorescence intensity (EGFP mRNA) (Hek293 cells [1]; Palmitoleyl, 10 μM): 1394
- mean fluorescence intensity (EGFP mRNA) (Hek293 cells [1]; Petroselinyl, 2.5 μM): 1364
- mean fluorescence intensity (EGFP mRNA) (Hek293 cells [1]; Petroselinyl, 5 μM): 4636
- mean fluorescence intensity (EGFP mRNA) (Hek293 cells [1]; Petroselinyl, 10 μM): 643
- mean luminescent intensity (RLuc pDNA) (Hek293 cells [2]; Dodecanal, 10 μM): 71221 RLU
- mean luminescent intensity (RLuc pDNA) (Hek293 cells [2]; Dodecanal, 15 μM): 33244 RLU
- mean luminescent intensity (RLuc pDNA) (Hek293 cells [2]; Oleyl, 15 μM): 4792 RLU
- mean luminescent intensity (RLuc pDNA) (Hek293 cells [2]; Palmitoleyl, 5 μM): −143 RLU
- mean luminescent intensity (RLuc pDNA) (Hek293 cells [2]; Palmitoleyl, 10 μM): −284 RLU
- mean luminescent intensity (RLuc pDNA) (Hek293 cells [2]; Palmitoleyl, 15 μM): 3126 RLU
- mean luminescent intensity (RLuc pDNA) (Hek293 cells [2]; Petroselinyl, 5 μM): −1091 RLU
- mean luminescent intensity (RLuc pDNA) (Hek293 cells [2]; Petroselinyl, 10 μM): −1142 RLU
- mean luminescent intensity (RLuc pDNA) (Hek293 cells [2]; Petroselinyl, 15 μM): 147 RLU
- mean fluorescence intensity after transfection of EGFP mRNA (HepG2 cells [3]; Myristoleyl, 15 μM): 867
- mean fluorescence intensity after transfection of EGFP mRNA (HepG2 cells [3]; Oleyl, 5 μM): 382
- mean fluorescence intensity after transfection of EGFP mRNA (HepG2 cells [3]; Oleyl, 10 μM): 802
- mean fluorescence intensity after transfection of EGFP mRNA (HepG2 cells [3]; Oleyl, 15 μM): 231
- mean fluorescence intensity after transfection of EGFP mRNA (HepG2 cells [3]; Palmitoleyl, 10 μM): 1226
- mean fluorescence intensity after transfection of EGFP mRNA (HepG2 cells [3]; Palmitoleyl, 15 μM): 629
- mean luminescent intensity (RLuc pDNA) (HepG2 cells [4]; Dodecanal, 10 μM): 25099 RLU
- mean luminescent intensity (RLuc pDNA) (HepG2 cells [4]; Dodecanal, 15 μM): 21420 RLU
- mean luminescent intensity (RLuc pDNA) (HepG2 cells [4]; Myristoleyl, 5 μM): 57891 RLU
- mean luminescent intensity (RLuc pDNA) (HepG2 cells [4]; Myristoleyl, 10 μM): 244850 RLU
- mean luminescent intensity (RLuc pDNA) (HepG2 cells [4]; Myristoleyl, 15 μM): 286208 RLU
- mean luminescent intensity (RLuc pDNA) (HepG2 cells [4]; Petroselinyl, 15 μM): 50057 RLU

Substance: Ac-RRHK*RLK*RRLK*RL-NH2 (Ac-RRHK(NHNH2)RLK(NHNH2)RRLK(NHNH2)RL-NH2; not fully specified; printed as Ac-RRHK*RLK*RRLK*RL-NH2; also: K*4,K*7,K*11: native or modified lysine (ε-amide to a linker)) [13(Leu-His)]
- mean luminescent intensity (RLuc pDNA) (A549 cells; Oleyl, 5 μM): 17058 RLU
- mean luminescent intensity (RLuc pDNA) (A549 cells; Petroselinyl, 15 μM): 2865 RLU
- mean fluorescence intensity (EGFP mRNA) (Hek293 cells [1]; Palmitoleyl, 2.5 μM): 4730
- mean fluorescence intensity (EGFP mRNA) (Hek293 cells [1]; Palmitoleyl, 5 μM): 1141
- mean fluorescence intensity (EGFP mRNA) (Hek293 cells [1]; Petroselinyl, 2.5 μM): 629
- mean fluorescence intensity (EGFP mRNA) (Hek293 cells [1]; Petroselinyl, 5 μM): −150
- mean fluorescence intensity (EGFP mRNA) (Hek293 cells [1]; Petroselinyl, 10 μM): −168
- mean luminescent intensity (RLuc pDNA) (Hek293 cells [2]; Dodecanal, 15 μM): 62749 RLU
- mean luminescent intensity (RLuc pDNA) (Hek293 cells [2]; Palmitoleyl, 5 μM): 240629 RLU
- mean luminescent intensity (RLuc pDNA) (Hek293 cells [2]; Palmitoleyl, 10 μM): 77558 RLU
- mean luminescent intensity (RLuc pDNA) (Hek293 cells [2]; Palmitoleyl, 15 μM): 7639 RLU
- mean luminescent intensity (RLuc pDNA) (Hek293 cells [2]; Petroselinyl, 5 μM): 213228 RLU
- mean luminescent intensity (RLuc pDNA) (Hek293 cells [2]; Petroselinyl, 10 μM): 77709 RLU
- mean luminescent intensity (RLuc pDNA) (Hek293 cells [2]; Petroselinyl, 15 μM): 6882 RLU
- mean fluorescence intensity after transfection of EGFP mRNA (HepG2 cells [3]; Myristoleyl, 5 μM): 2950
- mean fluorescence intensity after transfection of EGFP mRNA (HepG2 cells [3]; Myristoleyl, 15 μM): 308
- mean fluorescence intensity after transfection of EGFP mRNA (HepG2 cells [3]; Palmitoleyl, 5 μM): 1636
- mean fluorescence intensity after transfection of EGFP mRNA (HepG2 cells [3]; Palmitoleyl, 10 μM): 574
- mean fluorescence intensity after transfection of EGFP mRNA (HepG2 cells [3]; Palmitoleyl, 15 μM): −350
- mean luminescent intensity (RLuc pDNA) (HepG2 cells [4]; Dodecanal, 10 μM): 12080 RLU
- mean luminescent intensity (RLuc pDNA) (HepG2 cells [4]; Dodecanal, 15 μM): 73505 RLU
- mean luminescent intensity (RLuc pDNA) (HepG2 cells [4]; Myristoleyl, 10 μM): 61828 RLU
- mean luminescent intensity (RLuc pDNA) (HepG2 cells [4]; Myristoleyl, 15 μM): 35356 RLU
- mean luminescent intensity (RLuc pDNA) (HepG2 cells [4]; Oleyl, 5 μM): 116466 RLU
- mean luminescent intensity (RLuc pDNA) (HepG2 cells [4]; Palmitoleyl, 10 μM): 71476 RLU

Substance: Ac-RRLK*RLK*RRLK*RL-NH2 [Peptide 13.3]
- mean luminescent intensity (RLuc pDNA) (A549 cells; Dodecanal, 10 μM): 964 RLU
- mean luminescent intensity (RLuc pDNA) (A549 cells; Dodecanal, 15 μM): 1174 RLU
- mean luminescent intensity (RLuc pDNA) (A549 cells; Myristoleyl, 10 μM): 2097 RLU
- mean luminescent intensity (RLuc pDNA) (A549 cells; Oleyl, 10 μM): 1248 RLU
- mean luminescent intensity (RLuc pDNA) (A549 cells; Oleyl, 15 μM): 1919 RLU
- mean luminescent intensity (RLuc pDNA) (A549 cells; Palmitoleyl, 10 μM): 2647 RLU
- mean luminescent intensity (RLuc pDNA) (A549 cells; Palmitoleyl, 15 μM): 2262 RLU
- mean luminescent intensity (RLuc pDNA) (A549 cells; Petroselinyl, 15 μM): 2205 RLU
- mean fluorescence intensity (EGFP mRNA) (Hek293 cells [1]; Dodecanal, 10 μM): 695
- mean fluorescence intensity (EGFP mRNA) (Hek293 cells [1]; Myristoleyl, 2.5 μM): 1316
- mean fluorescence intensity (EGFP mRNA) (Hek293 cells [1]; Myristoleyl, 5 μM): 1229
- mean fluorescence intensity (EGFP mRNA) (Hek293 cells [1]; Myristoleyl, 10 μM): 889
- mean fluorescence intensity (EGFP mRNA) (Hek293 cells [1]; Oleyl, 2.5 μM): 1384
- mean fluorescence intensity (EGFP mRNA) (Hek293 cells [1]; Oleyl, 5 μM): 853
- mean fluorescence intensity (EGFP mRNA) (Hek293 cells [1]; Petroselinyl, 2.5 μM): 768
- mean fluorescence intensity (EGFP mRNA) (Hek293 cells [1]; Petroselinyl, 5 μM): 1046
- mean fluorescence intensity (EGFP mRNA) (Hek293 cells [1]; Petroselinyl, 10 μM): 964
- mean luminescent intensity (RLuc pDNA) (Hek293 cells [2]; Dodecanal, 5 μM): 295675 RLU
- mean luminescent intensity (RLuc pDNA) (Hek293 cells [2]; Myristoleyl, 5 μM): 368875 RLU
- mean fluorescence intensity after transfection of EGFP mRNA (HepG2 cells [3]; Dodecanal, 10 μM): 674
- mean fluorescence intensity after transfection of EGFP mRNA (HepG2 cells [3]; Dodecanal, 15 μM): 606
- mean fluorescence intensity after transfection of EGFP mRNA (HepG2 cells [3]; Oleyl, 5 μM): 1087
- mean fluorescence intensity after transfection of EGFP mRNA (HepG2 cells [3]; Palmitoleyl, 5 μM): 689
- mean fluorescence intensity after transfection of EGFP mRNA (HepG2 cells [3]; Palmitoleyl, 10 μM): 986
- mean fluorescence intensity after transfection of EGFP mRNA (HepG2 cells [3]; Palmitoleyl, 15 μM): 974
- mean fluorescence intensity after transfection of EGFP mRNA (HepG2 cells [3]; Petroselinyl, 10 μM): 1128
- mean fluorescence intensity after transfection of EGFP mRNA (HepG2 cells [3]; Petroselinyl, 15 μM): 967
- mean luminescent intensity (RLuc pDNA) (HepG2 cells [4]; Myristoleyl, 5 μM): 91601 RLU
- mean luminescent intensity (RLuc pDNA) (HepG2 cells [4]; Myristoleyl, 10 μM): 54569 RLU
- mean luminescent intensity (RLuc pDNA) (HepG2 cells [4]; Myristoleyl, 15 μM): 59751 RLU
- mean luminescent intensity (RLuc pDNA) (HepG2 cells [4]; Oleyl, 15 μM): −1067 RLU
- mean luminescent intensity (RLuc pDNA) (HepG2 cells [4]; Palmitoleyl, 5 μM): 70999 RLU
- mean luminescent intensity (RLuc pDNA) (HepG2 cells [4]; Palmitoleyl, 15 μM): 16521 RLU
- mean luminescent intensity (RLuc pDNA) (HepG2 cells [4]; Petroselinyl, 5 μM): 76240 RLU
